“Also recorded” adds a separate entry of the source.
Columns and labels:
ORAI1 = biological target: T1, ORAI1 (Homo sapiens, UniProt Q96D31); assay: Live cell Ca2+ imaging of G-GECO1.2-ORAI1 transfected Jurkat T cells; assay type: cell-based; conditions: 10 μM
T1 construct: host or cells: Jurkat T-lymphocytes (electroporation)
Description: 12.5 ∗ 10^6 Jurkat T–lymphocytes were pelleted at 400 to 450 ×g for 5 min at room temperature and pellets were dissolved in 500 μl RPMI 1640 medium (Gibco) without phenol red containing L-glutamine, supplemented with 7.5% (v/v) NCS. 30 μg plasmid-DNA (G-GECO1.2-ORAI1) was transferred into a 4 mm electroporation cuvette (Biozym, Austria) and the Jurkat T-lymphocytes were added. G-GECO1.2-ORAI1 was a gift from Michael Cahalan, USA (Addgene plasmid # 73562). After an incubation of 5 min at 37 °C, cells were electroporated with 960 μF and 240 V (τ: […]). […]
17 to 22 h after electroporation, 5 ∗ 10^4 cells were pelleted at 400–450 ×g for 5 min at room temperature and cell pellets were dissolved in 50 μl nominal Ca^2+ free buffer. […] The fluorophore was excited at 488 nm every 2 s for 30 min and fluorescence was measured at 520 nm using Volocity (Version 6.3, Perkin Elmer).
Using ImageJ (Version 1.51 k, National Institutes of Health, USA) the pictures were analyzed for mean fluorescence in the outer ring of Jurkat T-lymphocytes employing ring-shaped regions of interest (ROIs). […] The mean background fluorescence values were subtracted from the signal in every image. For quantitative analysis, fluorescence intensities were normalized to the first fluorescence intensity (F/F0).

IP3 receptors = assay: IP3-evoked Ca2+ release in permeabilized Jurkat T cells; assay type: cell-based, human; conditions: 2 μM IP3
Description: (§1) 3 ∗ 10^7 Jurkat T-lymphocytes per measurement were centrifuged at 450 ×g for 5 min at room temperature. The pellet was rinsed twice, each time using 10 ml permeabilization buffer 1 (120 mM KCl, 10 mM NaCl, 1.2 mM MgCl2, 0.533 mM CaCl2, 1 mM EGTA and 10 mM HEPES, pH 7.2 (KOH), sterile filtered). Subsequently, the pellet was resuspended in 2 ml permeabilization buffer 1 containing 80 μg/ml saponin (Fluka) and the cells were incubated for 10 min at 37 °C. Subsequently, the cells were centrifuged at 450 ×g for 5 min at room temperature and the cell pellet was washed once in 10 ml permeabilization buffer 2 (120 mM KCl, 10 mM NaCl, 1.2 mM MgCl2 and 10 mM HEPES, pH 7.2 (KOH), sterile filtered). Finally, the cells were taken up in 1 ml permeabilization buffer 2, placed into a cuvette and measured at the fluorescence spectrophotometer. Before the start of the measurement, 0.5 μl of 1 mM Fura2 free acid (dissolved in pure water, final concentration: 0.5 μM), 5 μl of 5 mg/ml creatinkinase (dissolved in permeabilization buffer 2, final concentration: 25 μg/ml, 20 U/ml, Roche) and 10 μl of 2 M creatin phosphate (dissolved in permeabilization buffer 2, final concentration: 20 mM, Calbiochem) were added. Fura2 was used to measure the Ca^2+ concentration and creatinkinase and creatin phosphate were used as ATP-regenerating system. The measurement was controlled by FL Solutions (Version 4.1, Hitachi High-Technologies Corporation). Fura2 was alternatively excited every 2 s at 340 ± 5 nm and 380 ± 5 nm, each 400 ms apart. Fluorescence intensity was measured at an emission wavelength of 495 ± 5 nm for both excitation wavelengths. […] Ca^2+ concentrations were calculated according to Grynkiewicz et al. as described earlier in Section 2.4.
(§2) As a quantitative read-out for inhibition of IP3 receptors, the peak [Ca^2+] after IP3 addition was subtracted from the mean [Ca^2+] between 25 and 75 s before IP3 addition (dPeak). […] The rate constant K of the fitted data was used as a quantitative read-out for SERCA pump activity and its inhibition.

SERCA pumps = assay: SERCA activity (ATP-induced Ca2+ reuptake) in permeabilized Jurkat T cells; assay type: cell-based, human
Description: as §1, §2

TMBP cells = assay: In vitro activation of TMBP cells by MBP, cytokine mRNA by qPCR; assay type: cell-based, rat; conditions: TMBP cells + MBP; 6 h; qPCR; STX564 vs Synta66
Description: Myelin basic protein (MBP)-reactive CD4^+ T cells retrovirally transduced to express enhanced GFP (TMBP cells) were established as previously reported. In brief, 6–8 week old female Lewis rats were immunized subcutaneously with 150 μl of emulsion consisting of equal parts of MBP (stock concentration: 1 mg/ml) and complete Freund's adjuvant containing heat-inactivated Mycobacterium tuberculosis extract (Difco; stock concentration: 2 mg/ml). Draining lymph nodes were harvested and passed through a cell strainer (40 μm) 9–10 days after immunization. The cell suspension was co-cultured with GP + E86 packaging cell lines producing replication-deficient retroviruses in the presence of 10 μg/ml MBP. Murine IL-2 was added to the culture for T cell expansion from day 2–4 after stimulation. The cell lines underwent 3–4 cycles of stimulation before being used for in vitro and in vivo experiments. […] Upon stimulation, they produced interferon-γ and IL-17.
In vitro activation assays were performed in 96-well plates. […]. TMBP cell activation on mRNA level was determined using qPCR and on surface protein level using surface marker staining and subsequent flow cytometry analysis.
Total RNA was isolated using the standard TRIzol method. cDNA was synthesized using the RevertAid First Strand cDNA Synthesis Kit (Thermo Fisher Scientific). Quantitative PCR (qPCR) was performed using the StepOnePlus™ Real-Time PCR System (Applied Biosystems), as previously described [[23], [24], [25]]. Rat TMBP cell data were obtained from three to four independent duplicate measurements. β-actin served as housekeeping gene. Human PBMC data were obtained from two independent healthy donors and duplicate measurements (representative data of one donor are shown). HPRT served as housekeeping gene. For all probes (TaqMan), a combination of 5′-FAM and 3′-TAMRA quencher was used as described.

[1] = system: alpha-dendrotoxin sensitive KV channels, likely KV1.1, KV1.2 and/or KV1.6; conditions: 10 μM; ref Di Sabatino et al. [36]; cited from earlier work
KV1.3 channels = system: KV1.3 channels; parameters: method as in patent WO2005/009954A2 (compound 66); conditions: ref patent WO2005/009954A2 (compound 66); cited from earlier work

T1 sequence (Q96D31 whole entry): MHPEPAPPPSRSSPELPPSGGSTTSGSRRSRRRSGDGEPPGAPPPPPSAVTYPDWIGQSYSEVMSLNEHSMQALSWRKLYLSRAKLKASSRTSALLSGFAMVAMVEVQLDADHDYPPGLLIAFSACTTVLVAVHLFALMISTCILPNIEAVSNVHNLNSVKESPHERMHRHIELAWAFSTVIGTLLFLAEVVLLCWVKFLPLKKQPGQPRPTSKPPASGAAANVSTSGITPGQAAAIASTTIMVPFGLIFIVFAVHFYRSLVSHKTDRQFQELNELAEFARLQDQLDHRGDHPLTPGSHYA

## COc1ccc(OC)c(-c2ccc(NC(=O)c3ccncc3F)cc2)c1 [Synta66]
ORAI1
  SOCE by ORAI1 (G-GECO1.2-ORAI1 fluorescence): almost completely diminished
IP3 receptors
  effect on IP3-evoked Ca2+ release: Neither STX564 nor Synta66 affected IP3-evoked Ca^2+ release significantly; also recorded: did not inhibit the Ca^2+ release by IP3
SERCA pumps
  effect on SERCA activity (initial slope of [Ca2+] upon ATP addition): Neither STX564, Synta66 nor vehicle DMSO affected ATP-induced Ca^2+ reuptake by SERCA pumps; also recorded: neither STX564 nor Synta66 showed any effect
TMBP cells
  concentration at which interferon-γ expression was significantly antagonized: ≥ 10 µM
[1]
  inhibition of alpha-dendrotoxin sensitive KV channels: < 10%
KV1.3 channels
  inhibition of KV1.3 channels: inhibits KV1.3 channels
